Each structure is given as a SMILES string.

Assay [1] has as its system Beet Armyworm (Spodoptera exigua) ("BAW"). Nature of the assay: Bioassay on beet armyworm (BAW), 128-well diet tray assay. It counts as in vivo. Conditions: for mortality at 50 µg/cm2: 168 h, 50 μg/cm^2 on artificial diet, second instar BAW larvae, 25° C., five to seven days, average of eight wells, read-out: BAW % Control (or Mortality) rating; for pest or weed control at 50 µg/cm2: Table ABC (PC), activity rating class, read-out: BAW (Biological Results, Insect species). The procedure, abridged: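 Percent mortality, averaged across eight wells, was read after five to seven days at 25° C. under 14:10 light-dark. Each well held one to five second-instar larvae on artificial diet that had been treated with 50 μg/cm^2 compound in 90:10 acetone-water and dried.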

The subject of assay [2] is Cabbage Looper (Trichoplusia ni) ("CL"). Nature of the assay: Bioassay on cabbage looper (CL), 128-well diet tray assay. It counts as in vivo. Particulars: for mortality at 50 µg/cm2: 168 h, 50 μg/cm^2 on artificial diet, second instar CL larvae, 25° C., five to seven days, average of eight wells, read-out: CL % Control (or Mortality) rating; for pest or weed control at 50 µg/cm2: Table ABC (PC), activity rating class, read-out: CL (Biological Results, Insect species). The procedure, abridged:
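Percent mortality, averaged across eight replicate wells, was read after five to seven days at 25 °C under a 14:10 photoperiod. Each well held one to five second-instar T. ni on diet carrying a dried 50 μg/cm^2 dose applied in acetone-water 90:10.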

As a reminder, the mortality is the share of the test organisms that died. Take `CCc1ccccc1N1C(=O)CS/C1=N\C(=O)NCCCc1cccc(-c2ncn(-c3ccc(OC(F)(F)F)cc3)n2)c1` [P119, (Z)-1-(3-(2-ethylphenyl)-4-oxothiazolidin-2-ylidene)-3-(3-(3-(1-(4-(trifluoromethoxy)phenyl)-1H-1,2,4-triazol-3-yl)phenyl)propyl)urea]: the mortality at 50 µg/cm2 in assay [1] and in assay [2] was 50 to 100% in each case.
For `CC(C)c1ccccc1N1C(=O)CS/C1=N\C(=O)NCCCc1cccc(-c2ncn(-c3ccc(OC(F)(F)F)cc3)n2)c1` [P120, (Z)-1-(3-(2-isopropylphenyl)-4-oxothiazolidin-2-ylidene)-3-(3-(3-(1-(4-(trifluoromethoxy)phenyl)-1H-1,2,4-triazol-3-yl)phenyl)propyl)urea], the mortality at 50 µg/cm2 in assay [1] and in assay [2] was 50 to 100% throughout.
Take `Cc1ccc(C(C)C)c(N2C(=O)CS/C2=N\C(=O)NCCCc2cccc(-c3ncn(-c4ccc(OC(F)(F)F)cc4)n3)c2)c1` [P124, (Z)-1-(3-(2-isopropyl-5-methylphenyl)-4-oxothiazolidin-2-ylidene)-3-(3-(3-(1-(4-(trifluoromethoxy)phenyl)-1H-1,2,4-triazol-3-yl)phenyl)propyl)urea]: the mortality at 50 µg/cm2 in assay [1] and in assay [2] was 50 to 100% throughout.
Consider `CCCc1ccc(C)cc1N1C(=O)CS/C1=N\C(=O)NCCCc1cccc(-c2ncn(-c3ccc(OC(F)(F)F)cc3)n2)c1` [P125, (Z)-1-(3-(5-methyl-2-propylphenyl)-4-oxothiazolidin-2-ylidene)-3-(3-(3-(1-(4-(trifluoromethoxy)phenyl)-1H-1,2,4-triazol-3-yl)phenyl)propyl)urea], for which the mortality at 50 µg/cm2 in assay [1] and in assay [2] was 50 to 100% throughout.
In the case of `CCc1cccc(C)c1N1C(=O)CS/C1=N\C(=O)NCCCc1cccc(-c2ncn(-c3ccc(OC(F)(F)F)cc3)n2)c1` [P127, (Z)-1-(3-(2-ethyl-6-methylphenyl)-4-oxothiazolidin-2-ylidene)-3-(3-(3-(1-(4-(trifluoromethoxy)phenyl)-1H-1,2,4-triazol-3-yl)phenyl)propyl)urea], the mortality at 50 µg/cm2 in assay [1] and in assay [2] was 50 to 100% in each case.
As to `Cc1ccc(N2C(=O)CS/C2=N\C(=O)NCCCc2cccc(-c3ncn(-c4ccc(OC(F)(F)F)cc4)n3)c2)c(C(C)C)c1` [P128, (Z)-1-(3-(2-isopropyl-4-methylphenyl)-4-oxothiazolidin-2-ylidene)-3-(3-(3-(1-(4-(trifluoromethoxy)phenyl)-1H-1,2,4-triazol-3-yl)phenyl)propyl)urea], the mortality at 50 µg/cm2 in assay [1] and in assay [2] was 50 to 100% each time.
With `CC(C)c1cc(F)ccc1N1C(=O)CS/C1=N\C(=O)NCCCc1cccc(-c2ncn(-c3ccc(OC(F)(F)F)cc3)n2)c1` [P129, (Z)-1-(3-(4-fluoro-2-isopropylphenyl)-4-oxothiazolidin-2-ylidene)-3-(3-(3-(1-(4-(trifluoromethoxy)phenyl)-1H-1,2,4-triazol-3-yl)phenyl)propyl)urea], the mortality at 50 µg/cm2 in assay [1] and in assay [2] was 50 to 100% each time.
For `COc1ccc(N2C(=O)CS/C2=N\C(=O)NCCCc2cccc(-c3ncn(-c4ccc(OC(F)(F)F)cc4)n3)c2)c(C)c1` [P131, (Z)-1-(3-(4-methoxy-2-methylphenyl)-4-oxothiazolidin-2-ylidene)-3-(3-(3-(1-(4-(trifluoromethoxy)phenyl)-1H-1,2,4-triazol-3-yl)phenyl)propyl)urea], the mortality at 50 µg/cm2 in assay [1] and in assay [2] was 50 to 100% in each case.
Take `Cc1ccccc1N1C(=O)CS/C1=N\C(=O)NCCCCc1cccc(-c2ncn(-c3ccc(OC(F)(F)F)cc3)n2)c1` [P170, (Z)-1-(4-oxo-3-(o-tolyl)thiazolidin-2-ylidene)-3-(4-(3-(1-(4-(trifluoromethoxy)phenyl)-1H-1,2,4-triazol-3-yl)phenyl)butyl)urea]: the mortality at 50 µg/cm2 in assay [1] was 0%; in assay [2] it was 50 to 100%.
The like results for `CCc1ccccc1N1C(=O)CS/C1=N\C(=O)NCCCCc1cccc(-c2ncn(-c3ccc(OC(F)(F)F)cc3)n2)c1` [P171, (Z)-1-(3-(2-ethylphenyl)-4-oxothiazolidin-2-ylidene)-3-(4-(3-(1-(4-(trifluoromethoxy)phenyl)-1H-1,2,4-triazol-3-yl)phenyl)butyl)urea] were, in that order, 50 to 100% and 50 to 100%.
The like results for `CC(C)c1ccccc1N1C(=O)CS/C1=N\C(=O)NCCCCc1cccc(-c2ncn(-c3ccc(OC(F)(F)F)cc3)n2)c1` [P172, (Z)-1-(3-(2-isopropylphenyl)-4-oxothiazolidin-2-ylidene)-3-(4-(3-(1-(4-(trifluoromethoxy)phenyl)-1H-1,2,4-triazol-3-yl)phenyl)butyl)urea] were, in that order, 50 to 100% and 50 to 100%.
With `Cc1ccc(C(C)C)c(N2C(=O)CS/C2=N\C(=O)NCCCCc2cccc(-c3ncn(-c4ccc(OC(F)(F)F)cc4)n3)c2)c1` [P176, (Z)-1-(3-(2-isopropyl-5-methylphenyl)-4-oxothiazolidin-2-ylidene)-3-(4-(3-(1-(4-(trifluoromethoxy)phenyl)-1H-1,2,4-triazol-3-yl)phenyl)butyl)urea], the mortality at 50 µg/cm2 in assay [1] and in assay [2] was 50 to 100% throughout.
For the compound `CCc1cccc(C)c1N1C(=O)CS/C1=N\C(=O)NCCCCc1cccc(-c2ncn(-c3ccc(OC(F)(F)F)cc3)n2)c1` [P179, (Z)-1-(3-(2-ethyl-6-methylphenyl)-4-oxothiazolidin-2-ylidene)-3-(4-(3-(1-(4-(trifluoromethoxy)phenyl)-1H-1,2,4-triazol-3-yl)phenyl)butyl)urea], the mortality at 50 µg/cm2 in assay [1] and in assay [2] was 0% in each case.
With `Cc1ccc(N2C(=O)CS/C2=N\C(=O)NCCCCc2cccc(-c3ncn(-c4ccc(OC(F)(F)F)cc4)n3)c2)c(C(C)C)c1` [P180, (Z)-1-(3-(2-isopropyl-4-methylphenyl)-4-oxothiazolidin-2-ylidene)-3-(4-(3-(1-(4-(trifluoromethoxy)phenyl)-1H-1,2,4-triazol-3-yl)phenyl)butyl)urea], the figures for the mortality at 50 µg/cm2 in assay [1] and in assay [2] were 0% and 50 to 100%, respectively.
The matching figures for `CC(C)c1cc(F)ccc1N1C(=O)CS/C1=N\C(=O)NCCCCc1cccc(-c2ncn(-c3ccc(OC(F)(F)F)cc3)n2)c1` [P181]: 50 to 100% and 50 to 100%.
The like results for `COc1ccc(C(C)C)c(N2C(=O)CS/C2=N\C(=O)NCCCCc2cccc(-c3ncn(-c4ccc(OC(F)(F)F)cc4)n3)c2)c1` [P182, (Z)-1-(3-(2-isopropyl-5-methoxyphenyl)-4-oxothiazolidin-2-ylidene)-3-(4-(3-(1-(4-(trifluoromethoxy)phenyl)-1H-1,2,4-triazol-3-yl)phenyl)butyl)urea] were, in that order, 50 to 100% and 50 to 100%.
For the compound `CCC(CNC(=O)/N=C1\SCC(=O)N1c1cc(C)ccc1C(C)C)c1ccc(-c2ncn(-c3ccc(OC(F)(F)F)cc3)n2)cc1` (stereo not shown) [P364, (Z)-1-(3-(2-isopropyl-5-methylphenyl)-4-oxothiazolidin-2-ylidene)-3-(2-(4-(1-(4-(trifluoromethoxy)phenyl)-1H-1,2,4-triazol-3-yl)phenyl)butyl)urea], the mortality at 50 µg/cm2 in assay [1] and in assay [2] was 50 to 100% throughout.
Take `Cc1ccccc1NC(=S)NC(=O)NCc1ccc(-c2ncn(-c3ccc(OC(F)(F)F)cc3)n2)cc1` [PC1, 1-(o-tolylcarbamothioyl)-3-[[4-[1-[4-(trifluoromethoxy)phenyl]-1H-1,2,4-triazol-3-yl]phenyl]methyl]urea]: the pest or weed control at 50 µg/cm2 in assay [1] and in assay [2] was 50 to 100% throughout.
As to `CC(C)c1cc(F)ccc1NC(=S)NC(=O)NCc1ccc(-c2ncn(-c3ccc(OC(F)(F)F)cc3)n2)cc1` [PC3, 1-[(4-fluoro-2-isopropyl-phenyl)carbamothioyl]-3-[[4-[1-[4-(trifluoromethoxy)phenyl]-1H-1,2,4-triazol-3-yl]phenyl]methyl]urea], the pest or weed control at 50 µg/cm2 in assay [1] and in assay [2] was 50 to 100% in each case.
Regarding `Cc1ccc(NC(=S)NC(=O)NCc2ccc(-c3ncn(-c4ccc(OC(F)(F)F)cc4)n3)cc2)c(C(C)C)c1` [PC5, 1-[(2-isopropyl-4-methyl-phenyl)carbamothioyl]-3-[[4-[1-[4-(trifluoromethoxy)phenyl]-1H-1,2,4-triazol-3-yl]phenyl]methyl]urea], the pest or weed control at 50 µg/cm2 in assay [1] and in assay [2] was 50 to 100% each time.
Regarding `CCc1ccc(C)cc1NC(=S)NC(=O)NCc1ccc(-c2ncn(-c3ccc(OC(F)(F)F)cc3)n2)cc1` [PC7], the pest or weed control at 50 µg/cm2 in assay [1] and in assay [2] was 50 to 100% throughout.
Regarding `CCCc1ccc(C)cc1NC(=S)NC(=O)NCc1ccc(-c2ncn(-c3ccc(OC(F)(F)F)cc3)n2)cc1` [PC8, 1-[(5-methyl-2-propyl-phenyl)carbamothioyl]-3-[[4-[1-[4-(trifluoromethoxy)phenyl]-1H-1,2,4-triazol-3-yl]phenyl]methyl]urea], the pest or weed control at 50 µg/cm2 in assay [1] and in assay [2] was 50 to 100% each time.
As to `Cc1ccc(NC(=S)NC(=O)NCc2ccc(-c3ncn(-c4ccc(C(F)(F)F)cc4)n3)cc2)c(C(C)C)c1` [PC15, 1-[(2-isopropyl-4-methyl-phenyl)carbamothioyl]-3-[[4-[1-[4-(trifluoromethyl)phenyl]-1,2,4-triazol-3-yl]phenyl]methyl]urea], the pest or weed control at 50 µg/cm2 in assay [1] and in assay [2] was 50 to 100% in each case.

The values are drawn from US9783532B2, “Molecules having certain pesticidal utilities, and intermediates, compositions, and processes related thereto” (Dow AgroSciences LLC, priority 2013, dated 2017).
